# In ChEMBL document CHEMBL1201862, “PubChem BioAssay data set” (2004):
# Calls of active or inactive are those of the source.
# Assays:
# [1] = target: Cytochrome P450 2D6 (Homo sapiens, UniProt P10635);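 further: CYP2D6 member of a cytochrome P450 panel assay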
# [2] = target: T1, Cytochrome P450 1A2 (Homo sapiens, UniProt P05177);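 further: PubChem cytochrome P450 panel assay, CYP1A2 panel member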
# T1 sequence (P05177 whole entry): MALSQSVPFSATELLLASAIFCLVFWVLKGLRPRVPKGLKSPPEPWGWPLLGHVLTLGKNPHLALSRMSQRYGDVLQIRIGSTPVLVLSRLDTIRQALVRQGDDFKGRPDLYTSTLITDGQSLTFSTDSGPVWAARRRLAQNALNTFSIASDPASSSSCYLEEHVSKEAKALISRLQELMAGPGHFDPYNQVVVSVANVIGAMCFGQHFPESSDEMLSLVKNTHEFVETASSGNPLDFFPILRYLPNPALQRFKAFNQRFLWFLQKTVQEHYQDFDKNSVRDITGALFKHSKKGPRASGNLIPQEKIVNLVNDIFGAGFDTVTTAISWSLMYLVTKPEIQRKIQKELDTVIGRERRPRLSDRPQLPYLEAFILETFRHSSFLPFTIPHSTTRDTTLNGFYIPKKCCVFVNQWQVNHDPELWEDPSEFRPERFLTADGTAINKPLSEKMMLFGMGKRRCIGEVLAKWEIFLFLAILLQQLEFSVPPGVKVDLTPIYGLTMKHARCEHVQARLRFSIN
# [3] = cells; type: functional
# [4] = target: Large T antigen (Simian virus 40, UniProt P03070); type: functional, Betapolyomavirus macacae;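 further: Confirmatory-stage PubChem screen for compounds that inhibit SV40 T antigen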
# Chain of Large T antigen (P03070 whole entry): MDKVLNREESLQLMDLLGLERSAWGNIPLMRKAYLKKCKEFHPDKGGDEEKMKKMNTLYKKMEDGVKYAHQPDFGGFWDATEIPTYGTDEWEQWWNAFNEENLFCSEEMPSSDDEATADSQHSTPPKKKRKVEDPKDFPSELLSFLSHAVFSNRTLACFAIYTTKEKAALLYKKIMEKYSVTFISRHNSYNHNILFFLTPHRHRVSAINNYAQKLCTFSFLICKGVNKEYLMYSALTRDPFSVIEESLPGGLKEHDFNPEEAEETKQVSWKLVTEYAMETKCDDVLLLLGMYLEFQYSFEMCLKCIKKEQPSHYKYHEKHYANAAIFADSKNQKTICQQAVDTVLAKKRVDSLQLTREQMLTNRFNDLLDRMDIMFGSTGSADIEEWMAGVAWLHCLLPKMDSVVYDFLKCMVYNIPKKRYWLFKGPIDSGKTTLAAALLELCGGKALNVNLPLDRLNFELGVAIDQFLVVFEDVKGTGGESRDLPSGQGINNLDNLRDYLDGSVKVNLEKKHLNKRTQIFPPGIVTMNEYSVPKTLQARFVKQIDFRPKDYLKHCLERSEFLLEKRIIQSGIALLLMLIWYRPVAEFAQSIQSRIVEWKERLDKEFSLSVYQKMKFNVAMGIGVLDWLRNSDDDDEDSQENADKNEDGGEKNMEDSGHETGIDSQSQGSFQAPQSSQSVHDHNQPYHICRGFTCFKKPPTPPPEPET
# [5] = target: Luciferin 4-monooxygenase (Photinus pyralis, UniProt P08659); assay: inhibition of purified Photinus pyralis luciferase – biochemical, luminescence, dose response (AID 1891)
# Chain of Luciferin 4-monooxygenase (P08659 whole entry): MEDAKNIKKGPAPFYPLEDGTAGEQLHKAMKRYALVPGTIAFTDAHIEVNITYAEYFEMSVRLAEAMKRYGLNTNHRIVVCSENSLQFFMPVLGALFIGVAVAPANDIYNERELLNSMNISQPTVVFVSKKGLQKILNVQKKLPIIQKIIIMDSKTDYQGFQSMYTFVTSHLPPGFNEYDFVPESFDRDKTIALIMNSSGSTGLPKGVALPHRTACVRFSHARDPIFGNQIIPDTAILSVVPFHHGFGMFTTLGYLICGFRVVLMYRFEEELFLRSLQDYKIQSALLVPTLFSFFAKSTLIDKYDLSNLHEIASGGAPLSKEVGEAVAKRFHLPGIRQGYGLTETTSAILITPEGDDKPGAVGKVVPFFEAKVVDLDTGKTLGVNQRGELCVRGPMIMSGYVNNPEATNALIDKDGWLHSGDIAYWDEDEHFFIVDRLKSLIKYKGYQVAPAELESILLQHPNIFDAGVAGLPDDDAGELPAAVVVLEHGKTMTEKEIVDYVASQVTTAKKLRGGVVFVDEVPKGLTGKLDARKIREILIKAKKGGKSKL
# [6] = Luminescence Cell-Based Dose Confirmation HTS to Identify Inhibitors of Platelet Dense Granule Release. [Related pubchem assays: 1663 (Primary HTS), 1678 (Summary of Project)]; type: functional
# [7] = test system: Streptococcus sp. 'group A'; assay: Streptococcus pyogenes SK(-)GAS viability under kanamycin – luminescence, BacTiterGlo, confirmation, counter-screen for streptokinase expression inhibitor project, dose response (AID 1900); type: functional, organism-based
# [8] = target: T2, Streptokinase A (Streptococcus pyogenes serotype M1, UniProt P10520); assay: viability-normalized secreted streptokinase activity reduction – plasminogen activation absorbance, OD405, dose response (AID 1914); type: functional, Streptococcus pyogenes M1 GAS;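 further: secreted streptokinase activity via plasminogen activation per viability signal from cell pellet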
# T2 sequence (P10520 whole entry): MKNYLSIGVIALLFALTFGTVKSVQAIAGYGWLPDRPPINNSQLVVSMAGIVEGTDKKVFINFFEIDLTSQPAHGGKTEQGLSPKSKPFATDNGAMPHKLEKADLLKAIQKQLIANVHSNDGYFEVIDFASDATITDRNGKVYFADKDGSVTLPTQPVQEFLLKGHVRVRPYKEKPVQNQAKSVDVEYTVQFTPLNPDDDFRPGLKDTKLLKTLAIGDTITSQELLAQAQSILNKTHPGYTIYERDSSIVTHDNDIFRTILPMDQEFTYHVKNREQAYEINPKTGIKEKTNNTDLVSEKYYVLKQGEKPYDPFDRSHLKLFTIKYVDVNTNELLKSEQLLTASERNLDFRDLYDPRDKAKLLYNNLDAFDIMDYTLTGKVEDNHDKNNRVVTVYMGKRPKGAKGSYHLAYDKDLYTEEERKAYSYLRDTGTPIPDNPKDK
# [9] = test system: Streptococcus; assay: GAS UMAA2166 growth inhibition – luminescence, BacTiterGlo, counter-screen for streptokinase expression inhibitor project, dose response (AID 1915); type: functional, organism-based;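 further: potency for reduction of bacterial viability or growth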
# [10] = Trypanosoma cruzi growth suppression in host cells – NIH3T3 host cells, beta-gal luminescence, confirmation (AID 2044); type: functional, cell-based;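 further: intracellular parasites grown in NIH/3T3 mouse fibroblasts as host cells; luminescent beta-galactosidase reporter signal from transgenic T. cruzi replicating inside host cells; inhibitors lower the luminescence signal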
# [11] = NIH3T3 cell viability loss – ATP luminescence, mouse fibroblasts, counter-screen, dose response (AID 2010); type: functional, cell-based;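 further: cells exposed to compound for about 90 hours before reading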
# [12] = target: T3, RNA-binding protein pos-1 (Caenorhabditis elegans, UniProt G5EF15); assay: disruptors of C. elegans POS-1 RNA interaction – biochemical, fluorescence polarization, dose response (AID 1964);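 further: purified POS-1 fused to maltose binding protein made in E. coli; potency of compounds blocking POS-1 binding to fluorescent RNA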
# T3 sequence (G5EF15 whole entry): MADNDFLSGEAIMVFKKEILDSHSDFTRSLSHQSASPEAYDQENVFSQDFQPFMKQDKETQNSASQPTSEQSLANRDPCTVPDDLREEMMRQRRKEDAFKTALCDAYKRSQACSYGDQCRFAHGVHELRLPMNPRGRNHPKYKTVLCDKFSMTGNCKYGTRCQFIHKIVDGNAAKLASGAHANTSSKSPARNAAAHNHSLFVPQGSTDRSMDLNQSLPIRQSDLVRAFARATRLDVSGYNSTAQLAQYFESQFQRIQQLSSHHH
# [13] = target: T4, Zinc finger protein mex-5 (Caenorhabditis elegans, UniProt Q9XUB2); assay: potency of MEX-5 RNA-binding blockers – biochemical, C. elegans, fluorescence polarization, dose response (AID 1960)
# T4 sequence (Q9XUB2 whole entry): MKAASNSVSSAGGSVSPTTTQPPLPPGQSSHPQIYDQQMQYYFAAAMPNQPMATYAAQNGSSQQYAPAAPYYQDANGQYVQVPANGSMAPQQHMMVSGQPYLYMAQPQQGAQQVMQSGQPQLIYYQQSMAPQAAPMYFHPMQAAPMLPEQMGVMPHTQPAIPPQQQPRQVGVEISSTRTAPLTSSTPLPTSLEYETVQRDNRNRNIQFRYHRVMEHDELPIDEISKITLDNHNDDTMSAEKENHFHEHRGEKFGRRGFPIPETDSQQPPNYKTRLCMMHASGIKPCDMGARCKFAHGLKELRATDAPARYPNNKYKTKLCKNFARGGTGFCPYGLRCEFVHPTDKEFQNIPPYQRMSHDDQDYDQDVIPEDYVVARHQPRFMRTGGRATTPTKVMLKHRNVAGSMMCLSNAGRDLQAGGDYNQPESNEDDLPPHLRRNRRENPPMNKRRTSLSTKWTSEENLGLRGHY
# [14] = target: Cytochrome P450 2C9 (Homo sapiens, UniProt P11712)
# Chain of Cytochrome P450 2C9 (P11712 whole entry): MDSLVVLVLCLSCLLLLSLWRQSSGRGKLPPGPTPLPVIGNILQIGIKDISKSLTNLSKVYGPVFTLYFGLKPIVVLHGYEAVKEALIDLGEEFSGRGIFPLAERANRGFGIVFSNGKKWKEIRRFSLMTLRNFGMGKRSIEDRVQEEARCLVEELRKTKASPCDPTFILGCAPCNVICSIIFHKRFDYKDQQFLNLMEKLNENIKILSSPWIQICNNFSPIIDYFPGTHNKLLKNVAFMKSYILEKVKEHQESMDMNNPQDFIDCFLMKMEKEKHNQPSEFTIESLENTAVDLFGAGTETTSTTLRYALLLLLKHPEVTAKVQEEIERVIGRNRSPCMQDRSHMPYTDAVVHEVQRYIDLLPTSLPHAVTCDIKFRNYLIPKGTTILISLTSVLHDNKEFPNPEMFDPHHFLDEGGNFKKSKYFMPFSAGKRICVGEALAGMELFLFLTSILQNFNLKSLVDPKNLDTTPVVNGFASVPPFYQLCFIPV
# [15] = target: Cytochrome P450 2C19 (Homo sapiens, UniProt P33261); assay: Cytochrome panel assay with activity outcomes. Panel member name: p450-cyp2c19 Compounds with AC50 equal or less than 10 uM are considered active; type: functional; details: read-out: AC50
# Chain of Cytochrome P450 2C19 (P33261 whole entry): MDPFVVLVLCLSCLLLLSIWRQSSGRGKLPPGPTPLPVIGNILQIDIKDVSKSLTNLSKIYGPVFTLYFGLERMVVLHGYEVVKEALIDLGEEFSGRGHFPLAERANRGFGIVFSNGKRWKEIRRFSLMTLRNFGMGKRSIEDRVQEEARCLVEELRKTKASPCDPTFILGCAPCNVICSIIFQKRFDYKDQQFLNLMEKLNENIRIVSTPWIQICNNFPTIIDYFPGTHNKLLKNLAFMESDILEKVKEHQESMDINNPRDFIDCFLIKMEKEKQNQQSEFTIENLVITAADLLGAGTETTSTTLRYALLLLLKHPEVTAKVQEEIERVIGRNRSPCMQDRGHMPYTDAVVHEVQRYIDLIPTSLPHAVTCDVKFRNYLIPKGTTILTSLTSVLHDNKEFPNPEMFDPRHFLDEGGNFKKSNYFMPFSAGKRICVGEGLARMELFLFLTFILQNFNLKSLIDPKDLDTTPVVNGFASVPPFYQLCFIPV
# [16] = target: Cytochrome P450 3A4 (Homo sapiens, UniProt P08684);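 further: CYP3A4 tested as one member of a cytochrome P450 panel screen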
# Chain of Cytochrome P450 3A4 (P08684 whole entry): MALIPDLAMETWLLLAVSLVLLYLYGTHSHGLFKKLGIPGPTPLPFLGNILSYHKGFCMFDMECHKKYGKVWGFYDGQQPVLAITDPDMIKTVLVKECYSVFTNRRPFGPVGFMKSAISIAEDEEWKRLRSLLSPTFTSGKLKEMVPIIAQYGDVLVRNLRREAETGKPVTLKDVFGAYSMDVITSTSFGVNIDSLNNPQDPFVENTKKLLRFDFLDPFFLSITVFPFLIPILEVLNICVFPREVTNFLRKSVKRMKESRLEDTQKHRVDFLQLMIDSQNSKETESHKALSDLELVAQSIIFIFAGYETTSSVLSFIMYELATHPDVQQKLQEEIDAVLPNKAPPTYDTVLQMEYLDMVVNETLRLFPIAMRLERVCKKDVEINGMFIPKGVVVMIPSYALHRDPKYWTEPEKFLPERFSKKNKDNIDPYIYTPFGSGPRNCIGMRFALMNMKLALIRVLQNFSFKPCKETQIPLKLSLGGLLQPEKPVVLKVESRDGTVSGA
# [17] = target: T5, Rac GTPase-activating protein 1 (Homo sapiens, UniProt Q9H0H5); assay: blockers of MgcRacGAP-driven Rac1 GTP hydrolysis – biochemical, ADP Hunter fluorescence, primary and confirmatory, confirmation (AID 624330); type: functional
# T5 sequence (Q9H0H5 whole entry): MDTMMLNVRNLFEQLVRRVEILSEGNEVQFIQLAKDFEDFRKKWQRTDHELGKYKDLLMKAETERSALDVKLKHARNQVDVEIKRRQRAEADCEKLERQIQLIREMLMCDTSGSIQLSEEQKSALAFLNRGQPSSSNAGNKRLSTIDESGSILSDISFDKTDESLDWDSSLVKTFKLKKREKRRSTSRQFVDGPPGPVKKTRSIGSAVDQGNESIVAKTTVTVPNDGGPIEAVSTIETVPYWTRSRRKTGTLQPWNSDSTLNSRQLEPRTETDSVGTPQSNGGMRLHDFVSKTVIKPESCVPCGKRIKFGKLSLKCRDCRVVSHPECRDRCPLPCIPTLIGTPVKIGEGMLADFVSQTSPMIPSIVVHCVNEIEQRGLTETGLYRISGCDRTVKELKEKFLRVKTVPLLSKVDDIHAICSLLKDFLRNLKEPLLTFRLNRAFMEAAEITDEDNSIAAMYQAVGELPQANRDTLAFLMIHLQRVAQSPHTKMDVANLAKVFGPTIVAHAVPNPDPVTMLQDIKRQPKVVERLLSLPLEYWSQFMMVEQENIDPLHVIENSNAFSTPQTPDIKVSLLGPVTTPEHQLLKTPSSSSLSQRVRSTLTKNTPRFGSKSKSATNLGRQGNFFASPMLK
# [18] = test system: INS1; assay: INS-1E survival protection against cytokine death – cell-based, luminescence, retest, dose response (AID 449756); type: functional; details: Rattus norvegicus;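 further: cell death triggered by IL-1 beta plus TNF-alpha plus IFN-gamma mixture; protective hits raise ATP signal compared with cytokine alone wells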
# [19] = viability of uninfected HEp-2 cells – cell-based, HTS, cytotoxicity control for RSV inhibitor project, dose response (AID 2410); type: functional; details: human respiratory syncytial virus
# Chain of Cytochrome P450 2D6 (P10635 whole entry): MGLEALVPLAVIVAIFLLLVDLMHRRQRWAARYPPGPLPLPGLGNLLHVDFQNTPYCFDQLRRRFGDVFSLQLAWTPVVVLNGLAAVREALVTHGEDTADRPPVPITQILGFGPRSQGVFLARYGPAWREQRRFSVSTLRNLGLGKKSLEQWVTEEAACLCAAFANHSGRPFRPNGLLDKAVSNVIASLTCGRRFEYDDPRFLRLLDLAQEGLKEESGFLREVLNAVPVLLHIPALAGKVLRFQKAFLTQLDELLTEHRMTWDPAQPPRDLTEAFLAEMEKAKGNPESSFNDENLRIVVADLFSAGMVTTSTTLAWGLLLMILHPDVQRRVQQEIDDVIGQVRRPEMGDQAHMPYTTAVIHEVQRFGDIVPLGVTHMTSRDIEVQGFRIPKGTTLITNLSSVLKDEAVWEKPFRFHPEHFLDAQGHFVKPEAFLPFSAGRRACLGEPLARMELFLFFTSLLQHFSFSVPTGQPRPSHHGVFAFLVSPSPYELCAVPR
smiles,measurement,setting,value
CCCc1nc2ccccc2c(C(=O)OCC(=O)Nc2cccc(S(=O)(=O)N3CCOCC3)c2)c1CC,AC50,[1],17.8 µM (inconclusive)
same,AC50,[2],10 µM (inconclusive)
CCOC(=O)c1cc(-c2csc(COc3ccccc3)n2)on1,IC50,[3],< 0.1 µM (active)
COc1cc2c(cc1OC)-c1cc(Nc3ccc(N(C)C)cc3)nc(=O)n1CC2,IC50,[4],2.74 µM (active)
same,EC50,[5],> 112 µM (not active)
same,EC50,[6],4.83 µM (active)
CCN(CC)c1nc(C(F)(F)F)nc2c1nnn2Cc1ccccc1,EC50,[7],7.21 µM (active)
same,EC50,[8],12.4 µM (active)
same,EC50,[9],> 150 µM (not active)
O=C(CSc1nc2ccccc2s1)Nc1nccs1,AC50,[1],0.316 µM (inconclusive)
COCCn1c(=O)c(-c2cccc(C#N)c2)nc2cnc(N(C)C)nc21,AC50,[1],0.1 µM (inconclusive)
same,AC50,[2],2 µM (inconclusive)
O=C(Nc1nnc(C2=COCCO2)o1)c1cccc(C(F)(F)F)c1,EC50,[7],2.96 µM (active)
same,EC50,[9],7.55 µM (active)
same,IC50,[3],4.89 µM (active)
O=C(O)[C@@H]1Cc2c([nH]c3ccccc23)[C@@H](CCCCO)N1,AC50,[1],3.98 µM (inconclusive)
Cc1ccc(C(=O)NNC2=Nc3cccc4cccc2c34)cc1,EC50,[7],3.26 µM (active)
same,EC50,[8],> 150 µM (not active)
same,EC50,[9],> 150 µM (not active)
O=C(Nc1ccc(F)cc1)c1cc(S(=O)(=O)N2CCCCC2)cs1,AC50,[1],25.1 µM (inconclusive)
O=C(CSc1nnc(CNC(=O)c2c(F)cccc2F)o1)NCCc1ccccc1,EC50,[7],> 150 µM (not active)
same,EC50,[8],> 150 µM (not active)
same,EC50,[9],> 150 µM (not active)
COc1ccc2nc(C3CCCCC3)nc(C3CCCCC3)c2c1,EC50,[7],2.8 µM (active)
same,EC50,[8],> 150 µM (not active)
same,EC50,[9],5.71 µM (active)
CCOC(=O)c1sc2nccc(N(C)C)c2c1N=CNOCc1c(F)cccc1Cl,EC50,[7],11.6 µM (active)
same,EC50,[8],27 µM (active)
same,EC50,[10],1.26 µM (active)
same,EC50,[11],> 60 µM (not active)
same,EC50,[9],> 150 µM (not active)
CCCCCCNC(=O)N[C@H](C(=O)NCCC[C@H]1CN2C(=NC[C@H]2C)N1CCC(c1ccccc1)c1ccccc1)C(C)O (stereo partly drawn),IC50,[4],> 100 µM (active)
CCOC(=O)COc1ccc2c(c1)c(C(=O)OCC)c(C)n2CC,IC50,[3],5.46 µM (active)
CCOC(=O)c1c(NC(=O)CC2Nc3ccccc3NC2=O)sc(C)c1C (stereo not drawn),EC50,[12],> 300 µM (not active)
same,EC50,[13],> 300 µM (not active)
Cc1ccc(N(CCC#N)C(=O)CSc2ccc3c(c2)OCCO3)cc1,AC50,[1],25.1 µM (inconclusive)
Fc1ccc(N2CCN(Cc3c[nH]nc3-c3ccccc3)CC2)cc1,EC50,[7],> 150 µM (not active)
same,EC50,[8],> 150 µM (not active)
same,EC50,[9],> 150 µM (not active)
O=C(Nc1ccc2nc(-c3ccc(Br)o3)[nH]c2c1)c1ccco1,AC50,[1],1 µM (inconclusive)
same,AC50,[14],11.2 µM (inconclusive)
COC(=O)c1[nH]c2ccccc2c1/C=C1\C(=O)NC(=O)N(c2ccc(OC)cc2)C1=O,IC50,[4],89 µM (active)
O=C1NC(=O)N(Cc2ccccc2Cl)C(=O)/C1=C/Nc1ccc(F)cc1,EC50,[12],> 300 µM (not active)
same,EC50,[13],> 300 µM (not active)
COC(=O)c1cc(C(=O)OC)cc(-n2c(C)cc(C(=O)CC#N)c2C)c1,EC50,[12],> 300 µM (not active)
same,EC50,[13],> 300 µM (not active)
O=C(Nc1ccc2c(c1)CCC2)c1ccc(Br)o1,IC50,[3],> 50 µM (active)
N#CC1=C(N)Oc2[nH]nc(-c3cccnc3)c2C1c1ccc([N+](=O)[O-])o1 (stereo not drawn),IC50,[3],9.19 µM (active)
COc1ccccc1-c1nc(NCc2cnc(C)cn2)c2ccccc2n1,AC50,[15],39.8 µM (inconclusive)
same,AC50,[1],31.6 µM (inconclusive)
Fc1cccc(/C=N\N=C/c2cccc(F)c2)c1,AC50,[1],25.1 µM (inconclusive)
same,AC50,[16],31.6 µM (inconclusive)
N=c1c(C(=O)NC2CCCCC2)cc2c(=O)n3ccccc3nc2n1Cc1cccnc1,EC50,[12],> 300 µM (not active)
same,EC50,[13],12.7 µM (active)
Cc1ccc(S(=O)(=O)CCSc2nc(C)cc(C(F)(F)F)c2C#N)cc1,EC50,[12],> 300 µM (not active)
same,EC50,[13],80.8 µM (active)
COCC(=O)N1CCC[C@@]2(CCN(c3ncccn3)C2)C1,AC50,[1],15.8 µM (inconclusive)
C/N=c1\scc(C)n1/N=C/c1ccc(O)cc1O,IC50,[4],4.27 µM (active)
same,IC50,[17],10.5 µM (active)
CCn1cc(C(=O)O)c(=O)c2cc(F)c(N/N=C/c3ccccc3[N+](=O)[O-])cc21,EC50,[7],4.31 µM (active)
same,EC50,[8],> 150 µM (not active)
same,EC50,[9],13.4 µM (active)
same,AC50,[18],10.1 µM (active)
C/C(=N\Nc1ccc(Cl)c(Cl)c1)c1ccc(-n2ccnc2)cc1,CC50,[19],35.9 µM (active)
same,EC50,[7],3.05 µM (active)
same,EC50,[8],17.2 µM (active)
same,EC50,[9],11.9 µM (active)
Oc1ccc2[nH]ccc2c1,IC50,[4],80.2 µM (active)
